Test system: human CD1d-restricted T cell clones
Test: Flow cytometric staining with lipid treated multimerized CD1d-Fc aggregates
Assay type: cell-based
Settings: flow cytometry; human CD1d-Fc/Alexa 488 protein A aggregate, 40:1 lipid to fusion protein, compared with DMSO alone
Method: To facilitate binding to CD1 specific T cells for detection by flow cytometry, a highly multimerized form of the CD1d fusion protein was formed using fluorescently labeled protein A molecules. Protein A molecules spontaneously associate in solution at neutral pH with immunoglobulin Fc regions, forming complexes containing four Fc molecules and two protein A molecules (4+2 complexes, reference 2). The human CD1d-Fc fusion protein was incubated with Alexa 488 dye labeled protein A, and the 4+2 complexes purified by size exclusion chromatography on a Pharmacia Superose 6 column using PBS pH 7.2 as a running buffer. The purified 4+2 aggregates were concentrated to 100 μg/ml with ovalbumin as a carrier protein. The CD1d-Fc aggregate was then pre-incubated for 24 to 48 hours at 37° C. with antigenic glycolipids dissolved in DMSO at a 40:1 molar ratio of lipid to fusion protein, or with an equivalent volume of DMSO alone as a negative control. The T cell staining was performed at room temperature or 4° C. for 20 min, at a concentration of 40 μg/ml of the lipid or control treated CD1d-Fc aggregate.
To facilitate binding to CD1 specific T cells for detection by flow cytometry, a highly multimerized form of the CD1d fusion protein is formed using fluorescently labeled protein A molecules. Protein A molecules spontaneously associate in solution at neutral pH with immunoglobulin Fc regions, forming complexes containing four Fc molecules and two protein A molecules (4+2 complexes, Langone, J.J. et al, Molec. and Cell. Biochem, 65(2):159-70 (1985)). The human CD1d-Fc fusion protein was incubated with Alexa 488-dye labeled protein A, and the 4+2 complexes purified by size exclusion chromatography on a Phannacia Superose 6 column using PBS pH 7.2 as a running buffer. The purified 4+2 aggregates are concentrated to 100 μg/ml with ovalbumin as a carrier protein. The CD1d-Fc aggregate is then pre-incubated for 24 to 48 hours at 37° C. with antigenic glycolipids dissolved in DMSO at a 40:1 molar ratio of lipid to fusion protein, or with an equivalent volume of DMSO alone as a negative control. The T cell staining is performed at room temperature or 4° C. for 20 min, at a concentration of 40 μg/ml of the lipid or control treated CD1d-Fc aggregate.
Flow cytometric analysis of a CD1d-restricted T cell clone stained with the multimerized CD1d-Fc fusion protein (abbreviated as “hd(8)-fl”) was performed as follows. Staining with CD1d-Fc treated with lipid antigens dissolved in DMSO was compared with CD1d-Fc treated with DMSO alone as a negative control. The specific lipid antigen used were: aGalCer is α-galactosyl ceramide (KRN7000); aGlcCer is α-glucosyl ceramide; aManCer is α-mannosyl ceramide; bGalCer is β-galactosyl ceramide; Cer is ceramide (acylphytosphingolipid).
Flow cytometric analysis of a series of human T cell clones stained with the multimerized CD1d-Fc fusion protein, treated with α-GalCer or DMSO alone also was performed, including staining of two different CD1d-restricted (“NKT”) T cell clones DN2.B9 and DN1.10B3. Four other T cell clones that are not CD1d-restricted also were stained.

α-mannosyl ceramide [α-ManCer]
staining of CD1d-restricted T cell clones by lipid treated CD1d-Fc aggregate: did not stain above background levels
